Test results: PubChem BioAssay (NCI)
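Results reflect a 48-hour exposure of cells in 96-well plates to compound at five concentrations. The concentration for 50% growth inhibition is given as GI50. TGI is the concentration that stops growth completely.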

Tests used:
Assay in all cases: NCI tumour cell line growth inhibition, 48 h
[1] = system: U251 CNS
[2] = system: SR leukemia
[3] = system: RPMI-8226 leukemia
[4] = system: HT29 colon
[5] = system: UACC-62 melanoma
[6] = system: BT-549 breast
[7] = system: RXF 393 renal
[8] = system: SF-268 CNS
[9] = system: HOP-62 NSCLC
[10] = system: A549 NSCLC
[11] = system: LOX IMVI melanoma
[12] = system: CAKI-1 renal
[13] = system: HCT-116 colon
[14] = system: HL-60(TB) leukemia
[15] = system: A498 renal
[16] = system: NCI-H23 lung
[17] = system: CCRF-CEM leukemia
[18] = system: K-562 leukemia
[19] = system: MCF7 breast
[20] = system: SK-MEL-28 melanoma
[21] = system: SF-295 CNS
[22] = system: OVCAR-4 ovarian
[23] = system: SK-OV-3 ovarian
[24] = system: OVCAR-8 ovarian
[25] = system: COLO 205 colon
[26] = system: HCT-15 colon
[27] = system: NCI-H522 lung
[28] = system: EKVX NSCLC
[29] = system: HS 578T breast
[30] = system: IGROV1 ovarian
[31] = system: KM12 colon
[32] = system: OVCAR-3 ovarian
[33] = system: SNB-19 CNS
[34] = system: PC-3 prostate
[35] = system: MDA-N
[36] = system: MDA-MB-231 breast
[37] = system: MALME-3M melanoma
[38] = system: UO-31 renal
[39] = system: ACHN renal
[40] = system: MDA-MB-435
[41] = system: NCI-H460 lung
[42] = system: NCI/ADR-RES ovarian
[43] = system: 786-0 renal
[44] = system: SK-MEL-5 melanoma
[45] = system: UACC-257 melanoma
[46] = system: SW-620 colon
[47] = system: TK-10 renal
[48] = system: OVCAR-5 ovarian
[49] = system: SN12C renal
[50] = system: MOLT-4 leukemia
[51] = system: DU-145 prostate
[52] = system: SK-MEL-2 melanoma
[53] = system: SNB-75 CNS
[54] = system: SF-539 CNS
[55] = system: M14 melanoma
[56] = system: T-47D breast
[57] = system: HOP-92 NSCLC
[58] = system: NCI-H226 lung
[59] = system: HCC-2998 colon

For `CCC(C)C1=NC(C(=O)N/C=C\c2c[nH]c3cc(Br)c(Br)cc23)(C(C)C)NC1=O` (centres undefined), the GI50 [1] was 14.1 µM, the TGI [1] was 29 µM and the GI50 [2] was 17 µM. For the same compound, the TGI [2] was 37.1 µM, the GI50 [3] was 8.75 µM and the TGI [3] was 39 µM. The GI50 [4] was 18.3 µM, the TGI [4] was 44.4 µM and the GI50 [5] was 12 µM. The TGI [5] was 26.9 µM, the GI50 [6] was 23.7 µM and the TGI [6] was 71.2 µM. The GI50 [7] was 15.4 µM, the TGI [7] was 29.2 µM and the GI50 [8] was 15 µM. It also gave a TGI [8] of 30.1 µM, a GI50 [9] of 19.8 µM and a TGI [9] of 36.3 µM. It also gave a GI50 [10] of 11.7 µM, a TGI [10] of 26.5 µM and a GI50 [11] of 16.6 µM. It also gave a TGI [11] of 31.9 µM, a GI50 [12] of 12.2 µM and a TGI [12] of 26.8 µM. The GI50 [13] was 15.6 µM, the TGI [13] was 31.3 µM and the GI50 [14] was 33.7 µM. It also gave a TGI [14] of 59.6 µM, a GI50 [15] of 17.8 µM and a TGI [15] of 35 µM. It also gave a GI50 [16] of 16 µM, a TGI [16] of 29.4 µM and a GI50 [17] of 18.2 µM. It also gave a TGI [17] greater than 100 µM, a GI50 [18] of 16.5 µM and a TGI [18] of 35.8 µM. For the same compound, the GI50 [19] was 13.6 µM, the TGI [19] was 29.6 µM and the GI50 [20] was 15 µM. It also gave a TGI [20] of 32.7 µM, a GI50 [21] of 15.9 µM and a TGI [21] of 30.1 µM. For the same compound, the GI50 [22] was 11.1 µM, the TGI [22] was 32.3 µM and the GI50 [23] was 18.6 µM. For the same compound, the TGI [23] was 34.9 µM, the GI50 [24] was 32.3 µM and the TGI [24] was greater than 100 µM. For the same compound, the GI50 [25] was 14 µM, the TGI [25] was 29.3 µM and the GI50 [26] was 28.1 µM. The TGI [26] was 79.6 µM, the GI50 [27] was 13.5 µM and the TGI [27] was 26.4 µM. The GI50 [28] was 5.98 µM, the TGI [28] was 20 µM and the GI50 [29] was 21.4 µM. It also gave a TGI [29] of 68.4 µM, a GI50 [30] of 6.36 µM and a TGI [30] of 19.7 µM. For the same compound, the GI50 [31] was 18.5 µM, the TGI [31] was 44.3 µM and the GI50 [32] was 5.38 µM. For the same compound, the TGI [32] was 18.4 µM, the GI50 [33] was 18.5 µM and the TGI [33] was 35 µM. For the same compound, the GI50 [34] was 10.1 µM, the TGI [34] was 25.1 µM and the GI50 [35] was 15.4 µM. It also gave a TGI [35] of 30 µM, a GI50 [36] of 17.4 µM and a TGI [36] of 39.3 µM. The GI50 [37] was 20.6 µM, the TGI [37] was 39.3 µM and the GI50 [38] was 12.2 µM. For the same compound, the TGI [38] was 24.6 µM, the GI50 [39] was 18.3 µM and the TGI [39] was 39.6 µM. The GI50 [40] was 12 µM, the TGI [40] was 24.4 µM and the GI50 [41] was 12.9 µM. The TGI [41] was 26.7 µM, the GI50 [42] was 27.3 µM and the TGI [42] was greater than 100 µM. It also gave a GI50 [43] of 20.2 µM, a TGI [43] of 42.9 µM and a GI50 [44] of 11.7 µM. The TGI [44] was 25.1 µM, the GI50 [45] was 15.3 µM and the TGI [45] was 28.6 µM. For the same compound, the GI50 [46] was 16.9 µM, the TGI [46] was 38.2 µM and the GI50 [47] was 18.5 µM. For the same compound, the TGI [47] was 35.7 µM, the GI50 [48] was 15.4 µM and the TGI [48] was 29 µM. It also gave a GI50 [49] of 18.3 µM, a TGI [49] of 37.5 µM and a GI50 [50] of 15.2 µM. It also gave a TGI [50] of 30.3 µM, a GI50 [51] of 14.3 µM and a TGI [51] of 27.4 µM. For the same compound, the GI50 [52] was 12.3 µM, the TGI [52] was 26.7 µM and the GI50 [53] was 3.37 µM. It also gave a TGI [53] of 10.2 µM, a GI50 [54] of 21 µM and a TGI [54] of 42.5 µM. It also gave a GI50 [55] of 14 µM and a TGI [55] of 27.3 µM.
Work on `CCOC(=O)c1c(SCCCN2CCCCC2)n(-c2ccccc2)c(=S)n(-c2ccccc2)c1=O` yielded a TGI [1] of 30.5 µM, a TGI [2] of 67 µM and a TGI [3] greater than 100 µM. It also gave a TGI [4] of 37.5 µM, a TGI [5] of 25.2 µM and a TGI [7] of 32.2 µM. The TGI [8] was greater than 100 µM, the TGI [9] was greater than 100 µM and the TGI [10] was 33.9 µM. The TGI [56] was 32.6 µM, the TGI [13] was 24.8 µM and the TGI [14] was 7.69 µM. For the same compound, the TGI [15] was 35.6 µM, the TGI [16] was 33.9 µM and the TGI [17] was 49.3 µM. The TGI [57] was 29.1 µM, the TGI [18] was 41.3 µM and the TGI [19] was 37.6 µM. The TGI [20] was 31.9 µM, the TGI [22] was 31.5 µM and the TGI [24] was 33.6 µM. It also gave a TGI [58] of 34 µM, a TGI [25] of 32 µM and a TGI [26] of 33.2 µM. It also gave a TGI [59] of 31.1 µM, a TGI [27] of 34.9 µM and a TGI [28] of 91.8 µM. It also gave a TGI [29] of 46.5 µM, a TGI [31] of 34 µM and a TGI [32] of 30.4 µM. The TGI [33] was 31.4 µM, the TGI [34] was 30 µM and the TGI [35] was 28.5 µM. The TGI [36] was 46.1 µM, the TGI [37] was 29.8 µM and the TGI [38] was 29.1 µM. For the same compound, the TGI [39] was 44.7 µM, the TGI [40] was 29.7 µM and the TGI [43] was 13.5 µM. The TGI [44] was 30.1 µM, the TGI [46] was 35.4 µM and the TGI [47] was 34.8 µM. It also gave a TGI [48] of 34.2 µM, a TGI [49] of 29.7 µM and a TGI [50] of 35 µM. For the same compound, the TGI [51] was 29.9 µM, the TGI [52] was 30.9 µM and the TGI [54] was 27.9 µM. It also gave a TGI [55] of 31.9 µM.
